Measurements reported in patent publication US20240066133A1, “THERAPEUTIC AGENTS AND CONJUGATES THEREOF” (Beijing Xuanyi PharmaSciences Co., Ltd., priority 2020, published 2024).
Where two headings read alike, the source gives them in different places.

How the values were obtained:
MC38 tumor cells [1] = conditions: IT 5 ug/mouse every three days, three injections; for anti-tumor efficacy (tumor growth, FIG. 1): single agent, subcutaneous MC38
Method: To Evaluate the in vivo efficacy of A5-I, A5-II, A6-I and A6-II, C57BL/6 mouse was subcutaneously inoculated in the right flank with MC38 tumor cells (1×10^6) in 40 ul of HBSS for tumor development. Treatment started when tumor size reached around 80-100 mm^3, on day 7 after tumor cell implantation. Compounds were administered by IT injection and repeated every three days with total three injections. […] Tumor volumes were measured twice to thrice weekly.

MC38 tumor cells [2] = test: MC38 murine syngeneic model, Example 98 (Table 5); assay type: in vivo, C57BL/6 mouse; conditions: IT, Q3d × 3; doses per Table 5 (A5-I 3, A19 50 and 17, A33 17×2/8×1, A34 50, A38 51×1/17×2, A69 50, A71 50, A85 46 μg/mouse)
Method: Example 98. Evaluation of Compound A5-I, A19, A33, A34, A38, A69, A71 and A85 in MC38 Murine Syngeneic Model
Compounds (listed in Table 5), were administered by IT injection.

[3] = target: T1, Human STING (hSTING-R232) (Homo sapiens, UniProt Q86WV6, H232R); test: Activation of human STING signaling in THP1-Dual KI-hSTING-R232 cells (IRF promoter, QUANTI-Luc); assay type: cell-based; conditions: THP1 cell line, 24 h, read-out: EC50 IRF3
T1 construct: host or cells: THP1-Dual KI-hSTING-R232 cells
Method: Activation of Human STING Signaling in THP1 Cell Line
The cells were treated with 20 μl/well of compounds at 8 concentrations in duplicate in 96-well plate, and incubate for 24 h. To measure IRF promoter activity, 15 μl of cell culture supernatant was mixed with 45 μl QUANTI-Luc in an opaque 96-well plate and immediately measured using Luminometer; to measure NF-κB promoter activity, 15 μl of supernatant was mixed with 90 μl QUANTI-Blue, and incubated at 37° C. for 90 minutes, and read at OD650 nm. EC50 was calculated by nonlinear regression fit with 4-parameter responsive curve fitting using GraphPad Version 8 software (Table 1).

hSTING R232 = target: T2, hSTING R232 (Homo sapiens, UniProt Q86WV6, H232R); test: IRF activation in 293T-Dual hSTING R232 cells (Quanti-Blue); assay type: cell-based; conditions: 24 hr, read-out: EC50 IRF3
T2 construct: host or cells: 293T-Dual hSTING R232 cells
Method: A test compound with a serial of 1:3 dilution was prepared in complete medium, and 20 μL of the compound was added to the corresponding well, and incubated with the cells at 37° C. incubator for 24 hr.
To determine the effect on interferon regulatory factor (IRF) activation, 15 μL of cell culture supernatant was transferred into a fresh 96-half area-well plate, 90 μL of Quanti-Blue was added to each well and incubated at 37° C. for 90 min. OD at 650 nm was recorded. EC50 was calculated by nonlinear regression fit with 4-parameter responsive curve fitting using GraphPad Version 8 software (Table 2).

T1 sequence (Q86WV6 whole entry H232R): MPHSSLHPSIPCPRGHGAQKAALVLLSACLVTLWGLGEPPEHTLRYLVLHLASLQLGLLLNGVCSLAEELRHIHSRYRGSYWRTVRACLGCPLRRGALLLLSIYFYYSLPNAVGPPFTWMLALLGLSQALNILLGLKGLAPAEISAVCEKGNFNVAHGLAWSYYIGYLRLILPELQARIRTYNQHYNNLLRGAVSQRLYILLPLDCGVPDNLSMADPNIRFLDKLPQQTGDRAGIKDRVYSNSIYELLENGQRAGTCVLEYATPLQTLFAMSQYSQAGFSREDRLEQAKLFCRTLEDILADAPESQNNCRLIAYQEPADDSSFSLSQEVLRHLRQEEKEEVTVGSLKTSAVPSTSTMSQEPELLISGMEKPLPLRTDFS
T2 sequence (Q86WV6 whole entry H232R): as above

## BP1(=O)OC[C@H]2O[C@@H](n3cnc4c(N)ncnc43)[C@H](F)[C@@H]2O[P@](=O)(S)OC[C@H]2O[C@@H](n3cnc4c(N)ncnc43)[C@H](F)[C@@H]2O1 (some centres unmarked) [Compound A6-I]
MC38 tumor cells [1]
  anti-tumor efficacy (tumor growth, FIG. 1): significant anti-tumor efficacy

## B[P@@]1(=O)OC[C@H]2O[C@@H](n3cnc4c(N)ncnc43)[C@H](F)[C@@H]2O[P@](=O)(S)OC[C@H]2O[C@@H](n3cnc4c(N)ncnc43)[C@H](F)[C@@H]2O1 [Compound A6-II]
MC38 tumor cells [1]
  anti-tumor efficacy (tumor growth, FIG. 1): significant anti-tumor efficacy

## B[P@]1(=O)OC[C@H]2O[C@@H](n3cnc4c(N)ncnc43)[C@H](F)[C@@H]2O[P@@](=O)(S)OC[C@H]2O[C@@H](n3cnc4c(N)ncnc43)[C@H](F)[C@@H]2O1 [Compound A5-I, ((2R,3R,3aR,5S,7aR,9R,10R,10aR,12S,14aR)-2,9-bis(6-amino-9H-purin-9-yl)-3,10-difluoro-12-mercapto-5,12-dioxidooctahydro-2H,7H-difuro [3,2-d:3′,2′-j][1,3,7,9]tetraoxa[2,8]diphosphacyclododecin-5-yl)trihydroborate]
MC38 tumor cells [2]
  anti-tumor activity compared to vehicle-treated group (FIG. 5): significantly improved anti-tumor activity
MC38 tumor cells [1]
  tumor regression (FIG. 1): complete regression for all treated mice
  anti-tumor efficacy (tumor growth, FIG. 1): significant anti-tumor efficacy

## BP1(=O)OC[C@H]2O[C@@H](n3cnc4c(N)ncnc43)[C@H](F)[C@@H]2O[P@@](=O)(S)OC[C@H]2O[C@@H](n3cnc4c(=O)[nH]c(N)nc43)[C@H](F)[C@@H]2O1 (single isomer, unassigned) [Compound A1]
[3]; Assay Results 1 (average of more than 2 runs)
  EC50: 450 nM
[3]; Assay Results 2 (single run)
  EC50: 564 nM
hSTING R232
  EC50: 59 nM
